The values below come from patent US20180338897A1, “ORAL COMPOSITIONS FOR REDUCING DENTAL STAINS” (New York University, priority 2017, published 2018).

In series [1] the test system is yeast. Nature of the series: Yeast growth curve in liquid YPD media, absorbance at 400 nm. As to conditions: for Final absorbance / Initial absorbance: 400 nm; for Final absorbance: after 24 hr; for Initial absorbance: start of growth curve; for Effect on yeast growth: growth curve over 24 hr, FIG. 8. It counts as cell-based, Saccharomyces cerevisiae. On the procedure:
(§1) The following materials were used: peptone, dextrose/glucose, marmite/yeast extract, agar, 0.1 M EDTA in MOPS solution, 0.1 M C-2 in MOPS solution, 0.1 M C-6 in MOPS solution, and […] Deferiprone in MOPS solution, and water.
(§2) The yeast culture was prepared by adding dry baker's yeast to warm water and streaked on the media plates. Cultures were allowed to grow for 16-24 hours.
The growth curve experiment were carried out by measuring the inhibition of yeast culture in the presence of EDTA, C-2, C-6, and Deferiprone over time via absorbance at 400 nm (see FIG. 8).
The growth curve was used to measure the rate of growth of yeast over an 8 hour period with a final measurement after 24 hours. No growth is seen in the presence of EDTA. C-2, C-6, and Deferiprone show different levels of effectiveness (see FIG. 8).

The nature of series [2]: Destaining of stained beads and sand white quartz (Example 3). As to conditions: for Relative destaining effectiveness: comparison of C11, EDTA and Deferiprone. On the procedure:
Tannic acid and iron chloride solutions were prepared as in Example 2. In order to simulate a tooth like structure, boiling beads made from a synthetic silicate (Techniservice) and white quartz sand were used. Four vials were prepared with the following solutions and solids (Table 3).
0.1 mL of the tannic acid and iron(III) chloride were pipetted into each vial. They were mixed on a vortex for 10 seconds. Then, 9.8 mL of 0.1 M, pH 7.4 MOPS was added to each vial to adjust the pH to a neutral level. MOPS was used to mimic the pH of saliva. The contents were mixed again. […] The vials were left to stand for a week at room temperature. The following table (Table 4) summarizes the components added to the tooth-like solids.
The solids in the vials were washed with approximately 10 mL of MOPS. This step was to simulate a wash of the “tooth” like structure with a “saliva” like buffer. The vials were left for a week to allow time for unstained areas of the beads to stain.
After the structures were stained, experiments were carried out to test if the stains could be removed. Approximately 5 mL of C11 (1-(11′-Carboxydecyl)-3-Hydroxy-2-Methyl-4-Pyridinone) solution was pipetted into Vials #1 and #3. Vials #2 and #4 served as controls. The contents of the vials were then mixed by vortexing. The vials were left to de-stain for a week. After a week, the liquid was drained from the vials and a fresh 5 mL of C11 was pipetted. Vials were left to de-stain for another week.
EDTA was prepared as follows. 100 mM of EDTA was made by adding 9.164 g to 250 mL of deionized water. The solution was stirred for 10 minutes, then placed on a heater.
Three new vials were filled with 2.2346 g, 2.0195 g, 2.2600 g of beads followed by the salt (0.1 mL), then the tannic acid (0.1 mL), and finally the MOPS. […] Three other vials were filled with 2.115 g, 2.009 g, 2.115 g of sand white quartz and the solutions were added in sequence. […] The solutions were left to continue to stain for a week. After a week, all the vials were rinsed with 10 mL of MOPS. Supernatant was removed by using filter paper. 10 mL of MOPS was then added and the contents were stirred then left to sit for a week.
1 mL of the EDTA was pipetted into each vial. The resulting concentration was 0.01 M of EDTA in each vial. Vials were then mixed to ensure proper contact with the MOPS and EDTA molecules. Vials were left to sit for a week.
Two more pairs of vials (4th and 5th pairs) were prepared—one with the beads and the other with the sand. MOPS solution was added, but not EDTA. […] Two more pairs of vials (6th and 7th pairs) were prepared, again, one with beads and the other with sand. The purpose of these controls was to test if the destaining process could be accelerated. The EDTA concentration was increased from 0.01 M to 0.1 M and 10 mL of it was subsequently added to the vials along with 10 mL of MOPS.
(§3) 0.1 M of Deferiprone solution was made by mixing 1.3957 g and 100 mL of distilled water into a volumetric flask. […] The tables below (Table 5 and Table 6) summarizes the contents of the vials used in this part of the experiment.
These vials were left to stand for a week. After the week the vials were rinsed with distilled water until the liquid that the beads/sand were suspended in were clear.
The next set of experiments was carried out to determine how quickly the compositions were able to remove the stains.
Beads and sand solutions were rinsed with 10 mL of distilled water. […] The solutions were prepared as follows: (Table 11).

Series [3] can be described thus: Destaining of boiling beads stained with tannic acid and iron(III) chloride (Example 2). As to conditions: for Destaining: Experiment #1, 10 mL 0.1M solution on stained boiling beads; for Removal of stains (conclusion): Experiments #1 and #2, comparison with EDTA. On the procedure: To simulate the effects of staining caused by coffee and tea, tannic acid and iron(III) chloride solutions were prepared.
To prepare the tannic acid solution, solid tannic acid was used. 0.1M FeCl3.6H2O and added to 100 mL of distilled water. 0.1 M solutions of MOPS buffer was prepared. Then 0.1M solutions of EDTA in distilled water, C-2 in MOPS, C-6 in MOPS, and deferiprone in MOPS, were prepared. For a tooth like structure, boiling beads made from synthetic silicate were used.
Methods were as follows: Experiment #1: Comparison of EDTA, C-2, and deferiprone destaining: The procedure was broken down into 2 phases: staining and destaining. In the staining phase, 7 beads were added to each of the 12 vials. 3 vials were labeled control, 3 were labeled EDTA, 3 were labeled C-2, and 3 were labeled Deferiprone. 0.1 mL of the tannic acid and iron(III) chloride were pipetted onto the boiling beads in the vials. After mixing, 9.8 mL of 0.1 M, pH 7 MOPS was added. The vials were left to stand for a week at room temperature to complete the staining. For the destaining phase, the liquid in each vial was discarded and the beads were rinsed with distilled water 3 times. Then the solutions were added to the vials according to Table 1, swirled and left for the destaining phase.
Experiment #2: Comparison of deferiprone, C-2, and C-6 destaining: The same procedure was followed for Experiment 2 except EDTA was replaced with C-6 solution.

Series [4] deals with yeast (Saccharomyces cerevisiae). Nature of the series: Inhibition of yeast growth when prepared with dextrose-agar plates. It counts as cell-based. The source says:
The compounds of the present disclosure can reduce stains from the surfaces of teeth. The present compounds may also have anti-microbial activity. […] Thus, the compounds and compositions of the present disclosure may be used for reduction of teeth stains and/or as antimicrobials.

The subject of series [5] is yeast. Nature of the series: Disk diffusion on YPD agar plates with yeast cultures. It counts as cell-based, Saccharomyces cerevisiae. As to conditions: plates incubated at 30° C. On the procedure: as §1
Plate media was prepared containing 2% dextrose, 2% peptone, 0.36 g of yeast extract, and 1.5% agar in 1 L of water. The mixture was heated to dissolve the ingredients, and then autoclaved. 10 mL of the media was added to petri dishes to prepare plates.
as §2
Disks to which C-2, C-6, EDTA, or Deferiprone were added were added to petri dishes containing yeast cultures. The plates were incubated at 30° C. The effect on yeast growth was visualized and measured over time. The zone sizes were measured to the nearest millimeter using a ruler or caliper, including the diameter of the disk in the measurement. The measurements were rounded up to the nearest millimeter.
In general terms: A growth-free zone around the sample is the usual read-out of agar diffusion tests.

A short description of series [6]: Dissolution of deferiprone in distilled water. It counts as physicochemical. The settings on record: 0.1 M in distilled water; room temperature; magnetic bar. On the procedure:
as §3

Turning to `O=C(O)CN(CCN(CC(=O)O)CC(=O)O)CC(=O)O` [EDTA, ethylenediaminetetraacetic acid], in the series with yeast [1], the Final absorbance was determined as 0.481, the Initial absorbance is 0.375 and the “Effect on yeast growth” value is on record as “No growth”. The Destaining of beads entry in series [2] (0.01 M EDTA in MOPS, beads, after a week) is “partially destained”. For the same compound, in series [2] (0.01 M EDTA in MOPS, white quartz sand, after a week), the “Destaining of sand (colour of solution)” value was “solutions were clear”. Besides, the “Bleaching of beads and sand” value in series [2] (EDTA 0.01 M to 0.1 M, beads and sand, after over a month) is “most of the beads and sand were bleached”. In addition, the Relative destaining effectiveness entry in series [2] was “followed by EDTA”. The Destaining result in series [3] is listed as “slight difference after 15 minutes”.

Turning to `Cc1c(O)c(=O)ccn1CCCCCC(=O)O` [C-6, 1-(6′-Carboxypentyl)-3-Hydroxy-2-Methyl-4-Pyridinone], in the series with yeast [1], the Final absorbance was determined as 1.840; the “Effect on yeast growth” value is “effective, although the effect was less than EDTA and Deferiprone”. Further, the Growth of yeast result in series [4] (0.001 M) is recorded as “inhibited the growth of yeast”. Besides, the “Removal of stains (conclusion)” value in series [3] was “effective in removal of stains and act to remove stains faster than EDTA”. Moreover, the “Zone diameter (including the disk)” value in the series on yeast [5] stood at 1.45 cm.

Regarding `Cc1c(O)c(=O)ccn1CC(=O)O` [C-2, 1-Carboxymethyl-3-Hydroxy-2-Methyl-Pyrid-4-one], in the series on yeast [1], the Final absorbance is 1.761; the “Effect on yeast growth” value was “effective, although the effect was less than EDTA and Deferiprone”. In addition, in series [4] (0.001 M), the Growth of yeast result is recorded as “inhibited the growth of yeast”. Also, in series [3], the Destaining result was “Destaining was immediately noted”; the “Removal of stains (conclusion)” value was “effective in removal of stains and act to remove stains faster than EDTA”. Besides, the “Zone diameter (including the disk)” value in the series on yeast [5] turned out to be 1.55 cm.

In the case of `Cc1c(O)c(=O)ccn1C` [Deferiprone, 3-hydroxy-1,2-dimethylpyridin-4(1H)-one], the Final absorbance in the series with yeast [1] worked out at 0.762. The Initial absorbance in the series with yeast [1] is on record as 0.389. Also, the Relative destaining effectiveness result in series [2] is recorded as “most effective”. In series [2] (speed experiment, all Deferiprone dilutions (10 mL, 1 mL, 0.1 mL, 0.01 mL of 0.1M)), the “Duration of effective destaining” value is “For about an hour the destaining for all the vials except the controls continued to be effective”. The “Stain removal immediately after addition” value in series [2] (speed experiment, vials A3 and B3, 10 mL of 0.1M Deferiprone) is listed as “the stains were removed”. Moreover, the “Stained removed?” value in series [2] (vial A2: beads, 10 mL of 0.1M deferiprone, after a week) is “Yes”; in series [2] (vial A3: beads, 1 mL of 0.1M deferiprone & 9 mL of distilled water, after a week) it was “Yes”; in series [2] (vial B2: sand white quartz, 10 mL of 0.1M deferiprone, after a week), “Yes”; in series [2] (vial B3: sand white quartz, 1 mL of 0.1M deferiprone & 9 mL of distilled water, after a week) it was “Yes”. For the same compound, the “Discoloration of the solution after addition” value in series [2] (vials A2 and B2 (beads, sand), 10 mL of 0.1M deferiprone) is “immediate discoloration”; in series [2] (vials A3 and B3 (beads, sand), 1 mL of 0.1M deferiprone & 9 mL of distilled water), “relatively slower discoloration”. Besides, the Growth of yeast entry in series [4] (0.003 M) is on record as “inhibited the growth of yeast”. Further, the Destaining entry in series [3] was “Destaining was immediately noted”. Further, the “Removal of stains (conclusion)” value in series [3] is “effective in removal of stains and act to remove stains faster than EDTA”. Further, the Solubility entry in series [6] was “slow solubility was observed”.
